Data reported in patent US12195429B2, “Cannabinoid derivatives” (CANOPY GROWTH CORPORATION, priority 2019, dated 2025).

Key:
human CB1 receptor [1] = biological target: T1, human CB1 receptor (Homo sapiens, UniProt P21554); assay: PathHunter β-arrestin functional assay, CB1 receptor, antagonist mode; type: cell-based
T1 construct: host or cells: CHO-K1

human CB2 receptor = biological target: T2, human CB2 receptor (Homo sapiens, UniProt P34972); assay: CB2 radioligand competitive binding assay ([3H]CP 55,940 displacement); conditions: for Selectivity CB2: fold difference in binding affinity, CB2 over CB1, 1.00 = about the same affinity for both receptors
T2 construct: host or cells: CHO-K1
T2 sequence (P34972 whole entry): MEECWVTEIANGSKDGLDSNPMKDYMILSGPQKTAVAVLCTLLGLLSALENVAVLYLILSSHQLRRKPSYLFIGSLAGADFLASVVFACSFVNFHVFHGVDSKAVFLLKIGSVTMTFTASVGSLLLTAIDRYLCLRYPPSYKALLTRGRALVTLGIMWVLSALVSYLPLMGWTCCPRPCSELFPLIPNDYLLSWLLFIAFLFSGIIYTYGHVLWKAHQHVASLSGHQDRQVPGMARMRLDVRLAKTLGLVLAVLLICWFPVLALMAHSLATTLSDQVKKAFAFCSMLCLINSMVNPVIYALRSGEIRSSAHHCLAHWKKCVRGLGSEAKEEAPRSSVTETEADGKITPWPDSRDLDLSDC

human CB1 receptor [2] = biological target: T1, human CB1 receptor; assay: PathHunter β-arrestin functional assay, CB1 receptor, agonist mode; type: cell-based; conditions: PathHunter CHO-K1 CNR1 β-arrestin cells; normalized to CP55,940
human CB1 receptor [3] = biological target: T1, human CB1 receptor; assay: CB1 radioligand competitive binding assay ([3H]CP 55,940 displacement); conditions: for Selectivity CB1: fold difference in binding affinity, CB1 over CB2, 1.00 = about the same affinity for both receptors
[4] = read-out: IC50 towards human CB1 receptor, antagonist mode

T1 sequence (P21554 whole entry): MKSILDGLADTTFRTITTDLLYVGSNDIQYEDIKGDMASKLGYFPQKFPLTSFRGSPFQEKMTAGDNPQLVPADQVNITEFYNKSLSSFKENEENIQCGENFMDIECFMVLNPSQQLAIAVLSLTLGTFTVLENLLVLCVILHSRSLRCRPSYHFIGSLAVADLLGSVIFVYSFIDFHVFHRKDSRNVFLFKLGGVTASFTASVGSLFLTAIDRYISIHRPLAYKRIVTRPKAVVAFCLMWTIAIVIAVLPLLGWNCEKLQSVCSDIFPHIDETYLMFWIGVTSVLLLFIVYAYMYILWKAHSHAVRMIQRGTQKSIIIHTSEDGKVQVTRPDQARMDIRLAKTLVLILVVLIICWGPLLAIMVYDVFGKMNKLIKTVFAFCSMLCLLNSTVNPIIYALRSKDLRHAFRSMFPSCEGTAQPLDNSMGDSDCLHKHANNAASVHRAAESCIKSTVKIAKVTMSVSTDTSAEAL

| SMILES | IC50 (human CB1 receptor [1]; [4]) [nM] | IC50 (human CB2 receptor) [nM] | Selectivity CB2 (human CB2 receptor) [fold] | activity towards the human CB1 receptor, agonist mode (human CB1 receptor [2]) | IC50 (human CB1 receptor [3]) [µM] | Selectivity CB1 (human CB1 receptor [3]) [fold] | IC50 (human CB1 receptor [1]) [nM] |
| --- | --- | --- | --- | --- | --- | --- | --- |
| CCCCCc1cc(O)c(C2C=C(C)CCC2)c(O)c1-c1cccs1 (centres unmarked) [Compound 16c, 5′-methyl-4-pentyl-3-(thiophen-2-yl)-1′,2′,3′,4′-tetrahydro-[1,1′-biphenyl]-2,6-diol] | 1000 to 3000 | 500 to 990 | 2.22 | minimal to no activity | 1 to 4.99 |  |  |
| C=C(C)[C@@H]1CCC(C)=C[C@H]1c1c(O)cc(CCCCC)c(-c2nnn[nH]2)c1O [Compound 3d, 5′-methyl-4-pentyl-2′-(prop-1-en-2-yl)-3-(1H-tetrazol-5-yl)-1′,2′,3′,4′-tetrahydro-[1,1′-biphenyl]-2,6-diol] |  | 1000 to 4990 | 1.00 |  | 1 to 4.99 | 1.00 |  |
| C=C(C)[C@@H]1CCC(C)=C[C@H]1c1c(O)cc(CCCCC)c(-c2cccs2)c1O [Compound 16d] |  | < 500 | 7.50 |  | 1 to 4.99 |  |  |
| C=C(C)[C@@H]1CCC(C)=C[C@H]1c1c(O)cc(CCCCC)c(-c2ccnc(C)c2)c1O [Compound 35d, 2-(6-isopropenyl-3-methyl-cyclohex-2-en-1-yl)-4-(2-methyl-4-pyridyl)-5-pentyl-benzene-1,3-diol] |  | 1000 to 4990 | 1.60 |  | 1 to 4.99 |  |  |
| CCCCCc1cc(O)c(C2C=C(C)CCC2)c(O)c1-c1cccnc1 (centres unmarked) [Compound 12c, 5′-methyl-4-pentyl-3-(pyridin-3-yl)-1′,2′,3′,4′-tetrahydro-[1,1′-biphenyl]-2,6-diol] |  | 500 to 990 | 7.27 |  | > 5 |  |  |
| C=C(C)[C@@H]1CCC(C)=C[C@H]1c1c(O)cc(CCCCC)c(-c2ccco2)c1O [Compound 15d, 3-(furan-2-yl)-5′-methyl-4-pentyl-2′-(prop-1-en-2-yl)-1′,2′,3′,4′-tetrahydro-[1,1′-biphenyl]-2,6-diol] |  | 1000 to 4990 | 3.57 |  | > 5 |  |  |
| CCCCCc1cc(OC)c(C2C=C(C)CCC2)c(OC)c1-c1ccccc1 (centres unmarked) [Compound 40c, 2′,6′-dimethoxy-5-methyl-4′-pentyl-1,2,3,4-tetrahydro-1,1′:3′,1″-terphenyl] |  | 1000 to 4990 | 1.79 |  | > 5 |  |  |
| CCCCCc1cc(O)c(C2C=C(C)CCC2)c(O)c1-c1ccco1 (centres unmarked) [Compound 15c, 3-(furan-2-yl)-5′-methyl-4-pentyl-1′,2′,3′,4′-tetrahydro-[1,1′-biphenyl]-2,6-diol] | 1000 to 3000 | 1000 to 4990 |  |  | 1 to 4.99 |  |  |
| CCCCCc1cc(O)c(C2C=C(C)CCC2)c(O)c1-c1ccsc1 (centres unmarked) [Compound 17c, 5′-methyl-4-pentyl-3-(thiophen-3-yl)-1′,2′,3′,4′-tetrahydro-[1,1′-biphenyl]-2,6-diol] | 1000 to 3000 | 1000 to 4990 |  |  | 1 to 4.99 |  |  |
| C=C(C)[C@@H]1CCC(C)=C[C@H]1c1c(O)cc(CCCCC)c(-c2ccsc2)c1O [Compound 17d] |  | < 500 | 33.33 | minimal to no activity | 1 to 4.99 |  | 1000 to 3000 |
| C=C(C)[C@@H]1CCC(C)=C[C@H]1c1c(O)cc(CCCCC)c(-c2ccncc2)c1O [Compound 14d, 5′-methyl-4-pentyl-2′-(prop-1-en-2-yl)-3-(pyridin-4-yl)-1′,2′,3′,4′-tetrahydro-[1,1′-biphenyl]-2,6-diol] |  | 1000 to 4990 | 1.00 |  | 1 to 4.99 | 1.00 |  |
| CCCCCc1cc(O)c(C2C=C(C)CCC2)c(O)c1-c1nnn[nH]1 (centres unmarked) [Compound 3c, 5′-methyl-4-pentyl-3-(1H-tetrazol-5-yl)-1′,2′,3′,4′-tetrahydro-[1,1′-biphenyl]-2,6-diol] | 1000 to 3000 | 1000 to 4990 |  |  | 1 to 4.99 |  |  |
| C=C(C)[C@@H]1CCC(C)=C[C@H]1c1c(O)cc(CCCCC)c(-c2cn[nH]c2)c1O [Compound 41d, 5′-methyl-4-pentyl-2′-(prop-1-en-2-yl)-3-(1H-pyrazol-4-yl)-1′,2′,3′,4′-tetrahydro-[1,1′-biphenyl]-2,6-diol] |  | 1000 to 4990 | 1.60 |  | 1 to 4.99 |  |  |
| C=C(C)[C@@H]1CCC(C)=C[C@H]1c1c(O)cc(CCCCC)c(-c2cncnc2)c1O [Compound 13d, 5′-methyl-4-pentyl-2′-(prop-1-en-2-yl)-3-(pyrimidin-5-yl)-1′,2′,3′,4′-tetrahydro-[1,1′-biphenyl]-2,6-diol] |  | 1000 to 4990 | 2.35 |  | 1 to 4.99 |  |  |
| CCCCCc1cc(OC)c(C2C=C(C)CCC2)c(OC)c1-c1cccnc1 (centres unmarked) [Compound 39c, 3-(2,6-dimethoxy-5′-methyl-4-pentyl-1′,2′,3′,4′-tetrahydro-[1,1′-biphenyl]-3-yl)pyridine] |  | > 5000 | 1.47 |  | > 5 |  |  |
| C=C(C)[C@@H]1CCC(C)=C[C@H]1c1c(O)cc(CCCCC)c(-c2cc3ccccc3s2)c1O [Compound 34d, 4-(benzothiophen-2-yl)-2-[6-isopropenyl-3-methyl-cyclohez-2-en-1-yl]-5-pentyl-benzene-1,3-diol] | 1000 to 3000 | < 500 | 7.22 | minimal to no activity | 1 to 4.99 |  |  |
| C=C(C)[C@@H]1CCC(C)=C[C@H]1c1c(O)cc(CCCCC)c(-c2ccnn2C)c1O [Compound 33d, 5′-methyl-3-(1-methyl-1H-pyrazol-5-yl)-4-pentyl-2′-(prop-1-en-2-yl)-1′,2′,3′,4′-tetrahydro-[1,1′-biphenyl]-2,6-diol] |  | 1000 to 4990 | 1.00 |  | 1 to 4.99 | 1.00 |  |
| C=C(C)[C@@H]1CCC(C)=C[C@H]1c1c(O)cc(CCCCC)c(-c2c(C)noc2C)c1O [Compound 36d, 3-(3,5-dimethylisoxazol-4-yl)-5′-methyl-4-pentyl-2′-(prop-1-en-2-yl)-1′,2′,3′,4′-tetrahydro-[1,1′-biphenyl]-2,6-diol] |  | 1000 to 4990 |  |  | 1 to 4.99 | 2.22 |  |
| CCCCCc1cc(O)c(C2C=C(C)CCC2)c(O)c1-c1cncnc1 (centres unmarked) [Compound 13c, 5′-methyl-4-pentyl-3-(pyrimidin-5-yl)-1′,2′,3′,4′-tetrahydro-[1,1′-biphenyl]-2,6-diol] |  | 1000 to 4990 |  |  | 1 to 4.99 |  |  |
| C=C(C)[C@@H]1CCC(C)=C[C@H]1c1c(O)cc(CCCCC)c(-c2cccnc2)c1O [Compound 12d, 5′-methyl-4-pentyl-2′-(prop-1-en-2-yl)-3-(pyridin-3-yl)-1′,2′,3′,4′-tetrahydro-[1,1′-biphenyl]-2,6-diol] |  | 1000 to 4990 | 1.39 |  | 1 to 4.99 |  |  |
| CCCCCc1cc(OC)c(C2C=C(C)CCC2)c(OC)c1-c1cccc(N2CCOCC2)c1 (centres unmarked) [Compound 38c, 4-(2′,4′-dimethoxy-5″-methyl-6′-pentyl-1″,2″,3″,4″-tetrahydro-[1,1′:3′,1″-terphenyl]-3-yl)morpholine] |  | < 500 | 19.05 |  | < 0.5 |  |  |
